# Target: T1, Axl (Homo sapiens, UniProt P30530)
# T1 sequence (P30530 26-894): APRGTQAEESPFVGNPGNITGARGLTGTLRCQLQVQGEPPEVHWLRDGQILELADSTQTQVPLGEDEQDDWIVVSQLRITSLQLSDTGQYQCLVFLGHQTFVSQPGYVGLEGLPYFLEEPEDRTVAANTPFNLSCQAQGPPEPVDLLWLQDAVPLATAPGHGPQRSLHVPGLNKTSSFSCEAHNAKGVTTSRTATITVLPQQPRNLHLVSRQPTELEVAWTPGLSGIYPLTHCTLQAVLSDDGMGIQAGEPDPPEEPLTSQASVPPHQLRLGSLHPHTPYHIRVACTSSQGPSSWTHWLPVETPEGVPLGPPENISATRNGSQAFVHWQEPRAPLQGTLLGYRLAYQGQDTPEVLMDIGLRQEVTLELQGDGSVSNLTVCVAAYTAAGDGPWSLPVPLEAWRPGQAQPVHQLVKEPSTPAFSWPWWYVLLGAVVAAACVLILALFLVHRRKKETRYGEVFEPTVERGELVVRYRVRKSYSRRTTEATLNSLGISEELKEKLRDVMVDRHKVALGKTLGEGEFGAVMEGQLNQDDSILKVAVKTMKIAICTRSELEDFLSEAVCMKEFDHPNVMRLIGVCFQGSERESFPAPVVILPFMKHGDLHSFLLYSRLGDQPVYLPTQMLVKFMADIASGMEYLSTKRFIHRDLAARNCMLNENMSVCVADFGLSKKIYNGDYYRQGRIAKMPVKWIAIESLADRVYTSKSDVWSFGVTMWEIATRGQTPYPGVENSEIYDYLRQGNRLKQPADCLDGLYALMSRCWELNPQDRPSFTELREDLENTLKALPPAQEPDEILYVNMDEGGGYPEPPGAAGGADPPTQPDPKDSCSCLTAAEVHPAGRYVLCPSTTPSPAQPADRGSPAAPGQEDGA
# Test: Axl NanoBRET intracellular kinase assay (intracellular binding, K-5 tracer displacement)
# Design: host or cells: HEK-293
# Conditions: HEK-293 cells transfected with Axl-NanoLuc, 0.35 μM K-5 NanoBRET tracer; read-out: Cell Binding AXL
# Protocol: Measuring Intracellular Binding of Axl Inhibitors
# Axl NanoBRET™ intracellular kinase assay (Promega, N2540) was performed according to manufacturer's recommendation. In brief, HEK-293 cells are transiently transfected with Ax1-NanoLuc fusion vector (Promega, NV1071), utilizing Fugene HD transfection reagent (Promega, E2311) a day before experiment following manufacturer's recommendation.
# The day of the assay, the cells were collected and resuspended in Opti-MEM media (ThermoFisher, 31985070) at 2e5 cells/mL concentration. Testing compounds were serial diluted and dispensed into a white 384 well polystyrene plate at 200 nL in 100% DMSO. 40 μL of resuspended cells is then added per well for a final condition of 8K cells/well with 0.5% DMSO. After one-hour compound pre-incubation at 37° C. and 5% CO2, cells were further incubated with 0.35 μM K-5 NanoBRET tracer for two-hours at 37° C. and 5% CO2. […] of 3× substrate plus Inhibitor solution was prepared according to kits manual and added to the cells followed by a 30 second pulse centrifugation spin. The plate was then immediately read utilizing an Envision (Perkin Elmer) plate reader. The BRET signal is measured by taking the ratio of the emissions reading at 610 nm and 450 nm. Compound binding is based on the decrease BRET signal caused by the displacement of the K-5 tracer. […] ICso value of compounds was determined by 4-parameter non-linear regression fitting of percent activity in GraphPad Prism software.
row,SMILES,IC50 [nM]
1,"CN(C)C(=O)c1cccc(-c2ccc(-c3n[nH]c4ncc(-c5ccc6c(c5)CC[C@@H](N5C7COCC5C7)CC6)cc34)cc2)n1 [Example 94, N,N-Dimethyl-6-(4-{5-[(7S)-7-{3-oxa-6-azabicyclo[3.1.1]heptan-6-yl}-6,7,8,9-tetrahydro-5H-benzo[7]annulen-2-yl]-2H-pyrazolo[3,4-b]pyridin-3-yl}phenyl)pyridine-2-carboxamide]",< 100
2,"CN(C)C(=O)c1cccnc1-c1ccc(-c2c[nH]c3ncc(-c4ccc5c(c4)CC[C@@H](N4C6COCC4C6)CC5)cc23)cc1 [Example 165, N,N-Dimethyl-2-(4-{5-[(7S)-7-{3-oxa-6-azabicyclo[3.1.1]heptan-6-yl}-6,7,8,9-tetrahydro-5H-benzo[7]annulen-2-yl]-1H-pyrrolo[2,3-b]pyridin-3-yl}phenyl)pyridine-3-carboxamide]",< 100
3,"Cc1cccnc1-c1ccc(-c2c[nH]c3ncc(-c4ccc5c(c4)CC[C@@](C)(N4CCC[C@H]4C)CC5)cc23)cc1 [Example 172, 3-Methyl-2-(4-{5-[(7S)-7-methyl-7-[(2R)-2-methylpyrrolidin-1-yl]-6,7,8,9-tetrahydro-5H-benzo[7]annulen-2-yl]-1H-pyrrolo[2,3-b]pyridin-3-yl}phenyl)pyridine]",< 100
4,"Cc1cc(-c2n[nH]c3ncc(-c4ccc5c(c4)CC[C@@H](N4C6COCC4C6)CC5)cc23)ccc1-c1ccccn1 [Example 159, 6-[(7S)-2-{3-[3-Methyl-4-(pyridin-2-yl)phenyl]-2H-pyrazolo[3,4-b]pyridin-5-yl}-6,7,8,9-tetrahydro-5H-benzo[7]annulen-7-yl]-3-oxa-6-azabicyclo[3.1.1]heptane]",100 to 1000
5,"c1cncc(-c2ccc(-c3c[nH]c4ncc(-c5ccc6c(c5)CC[C@@H](N5C7COCC5C7)CC6)cc34)cc2)c1 [Example 158, 6-[(7S)-2-{3-[4-(Pyridin-3-yl)phenyl]-1H-pyrrolo[2,3-b]pyridin-5-yl}-6,7,8,9-tetrahydro-5H-benzo[7]annulen-7-yl]-3-oxa-6-azabicyclo[3.1.1]heptane]",100 to 1000
6,"c1ccc(-c2ccc(-c3n[nH]c4ncc(-c5ccc6c(c5)CC[C@@H](N5C7COCC5C7)CC6)cc34)cc2)nc1 [Example 154, 6-[(7S)-2-{3-[4-(Pyridin-2-yl)phenyl]-2H-pyrazolo[3,4-b]pyridin-5-yl}-6,7,8,9-tetrahydro-5H-benzo[7]annulen-7-yl]-3-oxa-6-azabicyclo[3.1.1]heptane]",< 100
7,"C[C@@H]1CCCN1[C@@]1(C)CCc2ccc(-c3cnc4[nH]cc(-c5ccc(-c6ccccn6)cc5)c4c3)cc2CC1 [Example 156, 2-(4-{5-[(7S)-7-Methyl-7-[(2R)-2-methylpyrrolidin-1-yl]-6,7,8,9-tetrahydro-5H-benzo[7]annulen-2-yl]-1H-pyrrolo[2,3-b]pyridin-3-yl}phenyl)pyridine]",< 100
8,"Cn1ccnc1-c1ccc(-c2n[nH]c3ncc(-c4ccc5c(c4)CC[C@@H](N4C6COCC4C6)CC5)cc23)cc1 [Example 111, 6-[(7S)-2-{3-[4-(1-Methyl-1H-imidazol-2-yl)phenyl]-1H-pyrazolo[3,4-b]pyridin-5-yl}-6,7,8,9-tetrahydro-5H-benzo[7]annulen-7-yl]-3-oxa-6-azabicyclo[3.1.1]heptane]",< 100
9,"CN(C)C(=O)c1cccnc1-c1ccc(-c2n[nH]c3ncc(-c4ccc5c(c4)CC[C@@H](N4C6COCC4C6)CC5)cc23)cc1 [Example 167, N,N-Dimethyl-2-(4-{5-[(7S)-7-{3-oxa-6-azabicyclo[3.1.1]heptan-6-yl}-6,7,8,9-tetrahydro-5H-benzo[7]annulen-2-yl]-1H-pyrazolo[3,4-b]pyridin-3-yl}phenyl)pyridine-3-carboxamide]",< 100
